Data taken from the supplement of paper PMC10331698.
± gives the standard deviation of the averaged measurements.

Columns and labels:
Assay in all cases: level (log10 ratio to DMSO vehicle control); higher = higher biomarker level / cell amount than vehicle control
Conditions in all cases: in DMSO
[1] = compound: FC(F)(F)C(F)(F)C(F)(F)C(F)(F)C(F)(F)CCI [1-Iodo-1H,1H,2H,2H-perfluoroheptane]
Method: (§1)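 BioMAP Diversity Plus panel of 12 human primary cell co-culture systems (3C, 4H, LPS, SAg, BT, BF4T, BE3C, CASM3C, HDF3CGF, KF3CT, MyoF, Mphg). Compounds were added 1 h before stimulation and left for 24 h (MyoF 48 h; BT 72 h for soluble read-outs or 6 d for IgG). Biomarkers were read by ELISA, cytotoxicity by SRB, PBMC viability and proliferation by Alamar Blue. Each well value was divided by the mean of 8 DMSO control wells on the same plate and log10 transformed; duplicate blinded samples were tested at 4 concentrations.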

[2] = compound: C=C(C)C(=O)OCCC(F)(F)C(F)(F)C(F)(F)C(F)(F)C(F)(C(F)(F)F)C(F)(F)F [(Perfluoro-5-methylhexyl)ethyl 2-methylprop-2-enoate]
Method: as §1

[3] = compound: O=C(O)C(F)(F)C(F)(F)C(F)F [4H-Perfluorobutanoic acid]
Method: as §1

[4] = compound: O=C(O)C(F)(F)OC(F)(F)C(F)(F)OC(F)(F)C(=O)O [Perfluoro-3,6-dioxaoctane-1,8-dioic acid]
Method: as §1

[5] = compound: FC(F)C(F)(F)COCC1CO1 [((2,2,3,3-Tetrafluoropropoxy)methyl)oxirane]
Method: as §1

Perfluoroheptanoic acid = compound: O=C(O)C(F)(F)C(F)(F)C(F)(F)C(F)(F)C(F)(F)C(F)(F)F [Perfluoroheptanoic acid]
Method: as §1

Heptafluorobutyramide = compound: NC(=O)C(F)(F)C(F)(F)C(F)(F)F [Heptafluorobutyramide]
Method: as §1

## BE3C:CD87/uPAR
[1]; 6700 nM
  level (log10): 0.006 ± 0.02
[1]; 20000 nM
  level (log10): 0.002 ± 0.0057
[1]; 60000 nM
  level (log10): 0.027 ± 0.0042
[2]; 6700 nM
  level (log10): 0.0035 ± 0.016
[2]; 20000 nM
  level (log10): 0.0165 ± 0.035
[3]; 6700 nM
  level (log10): -0.003 ± 0.013
[3]; 20000 nM
  level (log10): -0.0175 ± 0.019
[3]; 60000 nM
  level (log10): 0.0015 ± 0.005
[4]; 6700 nM
  level (log10): -0.0105 ± 0.005
[4]; 20000 nM
  level (log10): -0.0215 ± 0.012
[4]; 60000 nM
  level (log10): 0.008 ± 0.03
[5]; 6700 nM
  level (log10): -0.016 ± 0.018
[5]; 20000 nM
  level (log10): -0.017 ± 0.028
[5]; 60000 nM
  level (log10): -0.0135 ± 0.022
Perfluoroheptanoic acid; 6700 nM
  level (log10): -0.0275 ± 0.026
Perfluoroheptanoic acid; 20000 nM
  level (log10): -0.049 ± 0.033
Perfluoroheptanoic acid; 60000 nM
  level (log10): -0.05 ± 0.054
Heptafluorobutyramide; 6700 nM
  level (log10): 0.043 ± 0.04
Heptafluorobutyramide; 20000 nM
  level (log10): 0.0155 ± 0.016
Heptafluorobutyramide; 60000 nM
  level (log10): -0.019 ± 0.017

## LPS:CD40
[1]; 6700 nM
  level (log10): 0.0475 ± 0.061
[1]; 20000 nM
  level (log10): 0.056 ± 0.061
[1]; 60000 nM
  level (log10): 0.014 ± 0.078
[2]; 6700 nM
  level (log10): 0.07 ± 0.038
[2]; 20000 nM
  level (log10): -0.0015 ± 0.016
[3]; 6700 nM
  level (log10): -0.0365 ± 0.022
[3]; 20000 nM
  level (log10): -0.0355 ± 0.021
[3]; 60000 nM
  level (log10): 0.015 ± 0.031
[4]; 6700 nM
  level (log10): 0.025 ± 0.0099
[4]; 20000 nM
  level (log10): 0.0195 ± 0.005
[4]; 60000 nM
  level (log10): -0.0175 ± 0.053
[5]; 6700 nM
  level (log10): 0.009
[5]; 20000 nM
  level (log10): -0.006 ± 0.0057
[5]; 60000 nM
  level (log10): -0.012 ± 0.017
Perfluoroheptanoic acid; 6700 nM
  level (log10): -0.0135 ± 0.043
Perfluoroheptanoic acid; 20000 nM
  level (log10): 0.0055 ± 0.00071
Perfluoroheptanoic acid; 60000 nM
  level (log10): -0.0515 ± 0.079
Heptafluorobutyramide; 6700 nM
  level (log10): 0.0065 ± 0.022
Heptafluorobutyramide; 20000 nM
  level (log10): -0.004 ± 0.071
Heptafluorobutyramide; 60000 nM
  level (log10): 0.001 ± 0.059

## BE3C:CXCL9/MIG
[1]; 6700 nM
  level (log10): -0.001 ± 0.0014
[1]; 20000 nM
  level (log10): -0.008 ± 0.0042
[1]; 60000 nM
  level (log10): -0.008 ± 0.013
[2]; 6700 nM
  level (log10): 0.009 ± 0.013
[2]; 20000 nM
  level (log10): 0.008 ± 0.0071
[3]; 6700 nM
  level (log10): -0.0015 ± 0.011
[3]; 20000 nM
  level (log10): 0.0085 ± 0.022
[3]; 60000 nM
  level (log10): 0.0135 ± 0.0092
[4]; 6700 nM
  level (log10): 0.0015 ± 0.0064
[4]; 20000 nM
  level (log10): -0.003 ± 0.0099
[4]; 60000 nM
  level (log10): 0.0015 ± 0.0021
[5]; 6700 nM
  level (log10): 0 ± 0.0042
[5]; 20000 nM
  level (log10): -0.0115 ± 0.0092
[5]; 60000 nM
  level (log10): 0.003 ± 0.02
Perfluoroheptanoic acid; 6700 nM
  level (log10): 0 ± 0.0014
Perfluoroheptanoic acid; 20000 nM
  level (log10): 0.0065 ± 0.011
Perfluoroheptanoic acid; 60000 nM
  level (log10): 0.012 ± 0.017
Heptafluorobutyramide; 6700 nM
  level (log10): 0.002 ± 0.0014
Heptafluorobutyramide; 20000 nM
  level (log10): 0.0015 ± 0.0092
Heptafluorobutyramide; 60000 nM
  level (log10): -0.006 ± 0.0028

## SAg:PBMC Cytotoxicity
[1]; 6700 nM
  level (log10): -0.016 ± 0.024
[1]; 20000 nM
  level (log10): 0.0085 ± 0.018
[1]; 60000 nM
  level (log10): -0.033 ± 0.045
[2]; 6700 nM
  level (log10): -0.0255 ± 0.018
[2]; 20000 nM
  level (log10): 0.0155 ± 0.013
[3]; 6700 nM
  level (log10): -0.0205 ± 0.015
[3]; 20000 nM
  level (log10): 0.002 ± 0.0042
[3]; 60000 nM
  level (log10): 0.017 ± 0.033
[4]; 6700 nM
  level (log10): 0.0115 ± 0.023
[4]; 20000 nM
  level (log10): 0.012 ± 0.0099
[4]; 60000 nM
  level (log10): 0.0115 ± 0.0078
[5]; 6700 nM
  level (log10): 0.031 ± 0.021
[5]; 20000 nM
  level (log10): -0.006
[5]; 60000 nM
  level (log10): 0.0205 ± 0.023
Perfluoroheptanoic acid; 6700 nM
  level (log10): 0.0255 ± 0.0021
Perfluoroheptanoic acid; 20000 nM
  level (log10): 0.0095 ± 0.019
Perfluoroheptanoic acid; 60000 nM
  level (log10): 0.0195 ± 0.026
Heptafluorobutyramide; 6700 nM
  level (log10): 0.001 ± 0.014
Heptafluorobutyramide; 20000 nM
  level (log10): -0.0125 ± 0.021
Heptafluorobutyramide; 60000 nM
  level (log10): 0.019 ± 0.0099

## 3C:CXCL9/MIG
[1]; 6700 nM
  level (log10): -0.0035 ± 0.005
[1]; 20000 nM
  level (log10): -0.011 ± 0.0028
[1]; 60000 nM
  level (log10): -0.0075 ± 0.0064
[2]; 6700 nM
  level (log10): -0.001 ± 0.011
[2]; 20000 nM
  level (log10): 0.0045 ± 0.0035
[3]; 6700 nM
  level (log10): 0.005 ± 0.0042
[3]; 20000 nM
  level (log10): 0.0035 ± 0.013
[3]; 60000 nM
  level (log10): 0.012 ± 0.0014
[4]; 6700 nM
  level (log10): 0.003 ± 0.0057
[4]; 20000 nM
  level (log10): -0.009 ± 0.0028
[4]; 60000 nM
  level (log10): 0.0095 ± 0.005
[5]; 6700 nM
  level (log10): 0.0045 ± 0.013
[5]; 20000 nM
  level (log10): -0.0065 ± 0.016
[5]; 60000 nM
  level (log10): -0.0035 ± 0.0078
Perfluoroheptanoic acid; 6700 nM
  level (log10): 0.0115 ± 0.0035
Perfluoroheptanoic acid; 20000 nM
  level (log10): -0.01 ± 0.0071
Perfluoroheptanoic acid; 60000 nM
  level (log10): 0.0135 ± 0.0078
Heptafluorobutyramide; 6700 nM
  level (log10): -0.004 ± 0.016
Heptafluorobutyramide; 20000 nM
  level (log10): -0.0115 ± 0.0064
Heptafluorobutyramide; 60000 nM
  level (log10): -0.0065 ± 0.0078

## SAg:CXCL8/IL-8
[1]; 6700 nM
  level (log10): -0.0585 ± 0.042
[1]; 20000 nM
  level (log10): -0.061 ± 0.016
[1]; 60000 nM
  level (log10): 0.007 ± 0.042
[2]; 6700 nM
  level (log10): 0.0115 ± 0.012
[2]; 20000 nM
  level (log10): 0.0405 ± 0.079
[3]; 6700 nM
  level (log10): -0.0325 ± 0.03
[3]; 20000 nM
  level (log10): -0.0065 ± 0.022
[3]; 60000 nM
  level (log10): 0.025 ± 0.098
[4]; 6700 nM
  level (log10): -0.006 ± 0.0085
[4]; 20000 nM
  level (log10): -0.0015 ± 0.0064
[4]; 60000 nM
  level (log10): 0.0155 ± 0.035
[5]; 6700 nM
  level (log10): -0.004 ± 0.011
[5]; 20000 nM
  level (log10): -0.0335 ± 0.011
[5]; 60000 nM
  level (log10): 0.02 ± 0.018
Perfluoroheptanoic acid; 6700 nM
  level (log10): 0.008 ± 0.011
Perfluoroheptanoic acid; 20000 nM
  level (log10): 0.0115 ± 0.0078
Perfluoroheptanoic acid; 60000 nM
  level (log10): 0.0715 ± 0.043
Heptafluorobutyramide; 6700 nM
  level (log10): 0.015 ± 0.013
Heptafluorobutyramide; 20000 nM
  level (log10): 0.011 ± 0.017
Heptafluorobutyramide; 60000 nM
  level (log10): 0.0085 ± 0.021

## LPS:CD69
[1]; 6700 nM
  level (log10): -0.015 ± 0.0071
[1]; 20000 nM
  level (log10): -0.015
[1]; 60000 nM
  level (log10): -0.019 ± 0.0057
[2]; 6700 nM
  level (log10): -0.019 ± 0.069
[2]; 20000 nM
  level (log10): -0.0145 ± 0.08
[3]; 6700 nM
  level (log10): 0.024 ± 0.035
[3]; 20000 nM
  level (log10): 0.02 ± 0.034
[3]; 60000 nM
  level (log10): 0.028 ± 0.028
[4]; 6700 nM
  level (log10): -0.004 ± 0.0071
[4]; 20000 nM
  level (log10): 0.003 ± 0.017
[4]; 60000 nM
  level (log10): 0.0165 ± 0.022
[5]; 6700 nM
  level (log10): 0.0005 ± 0.022
[5]; 20000 nM
  level (log10): -0.003 ± 0.0014
[5]; 60000 nM
  level (log10): 0.012 ± 0.041
Perfluoroheptanoic acid; 6700 nM
  level (log10): -0.0095 ± 0.0035
Perfluoroheptanoic acid; 20000 nM
  level (log10): -0.025
Perfluoroheptanoic acid; 60000 nM
  level (log10): -0.057 ± 0.013
Heptafluorobutyramide; 6700 nM
  level (log10): 0.028 ± 0.076
Heptafluorobutyramide; 20000 nM
  level (log10): -0.0065 ± 0.056
Heptafluorobutyramide; 60000 nM
  level (log10): -0.009 ± 0.069
